# Measurements as given in the supplement of paper PMC10307832.
# Compound: Cn1nnc2c(C(N)=O)ncn2c1=O [Temozolomide] + Nc1ncn([C@H]2C[C@H](O)[C@@H](CO)O2)c(=O)n1 [Decitabine] (partner 2 µM)
# Test: relative viability (nuclei count vs DMSO), 5 days (fraction); higher = more cells survive
# Conditions: first compound 0.2 µM
# Method in brief: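 Five library-drug doses in √10 steps were combined with a fixed anchor-drug dose, or a single drug was given alone, by pin tool to lung cancer cell lines in 1536-well plates the day after seeding. Nuclei were stained and counted after 5 days. Relative viability is the nuclei count in treated wells over that in vehicle wells, taken as the median of duplicate plates.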
row,Cell Line,relative viability
1,NCI-H441,0.255
2,NCI-H460,0.523
3,NCI-H596,1.13
4,NCI-H647,0.339
5,NCI-H650,0.355
6,NCI-H838,0.493
7,NCI-H1355,0.37
8,NCI-H1395,0.707
9,NCI-H1437,0.604
10,NCI-H1651,0.599
11,NCI-H1666,0.706
12,NCI-H1734,0.535
13,NCI-H1755,0.749
14,NCI-H1792,0.434
15,NCI-H1915,0.246
16,NCI-H1944,0.398
17,NCI-H1975,0.401
18,NCI-H1993,0.535
19,NCI-H2085,0.63

# Same assay, conditions: first compound 0.6325 µM
row,Cell Line,relative viability
1,LK-2,0.284
2,LOU-NH91,0.801
3,LU99A,0.833
4,LXF-289,0.403
5,NCI-H23,0.309
6,NCI-H322M,0.704
7,NCI-H358,0.224
8,NCI-H441,0.279
9,NCI-H460,0.481
10,NCI-H596,1.07
11,NCI-H647,0.429
12,NCI-H650,0.319
13,NCI-H727,0.876
14,NCI-H838,0.495
15,NCI-H1355,0.4
16,NCI-H1395,0.716
17,NCI-H1437,0.54
18,NCI-H1651,0.614
19,NCI-H1666,0.776
20,NCI-H1734,0.536
21,NCI-H1755,0.732
22,NCI-H1792,0.599
23,NCI-H1793,0.54
24,NCI-H1915,0.266
25,NCI-H1944,0.389
26,NCI-H1975,0.42
27,NCI-H1993,0.69
28,NCI-H2085,0.599

# Same assay, conditions: first compound 2 µM
row,Cell Line,relative viability
1,LK-2,0.263
2,LOU-NH91,0.849
3,LU99A,0.917
4,LXF-289,0.367
5,NCI-H23,0.293
6,NCI-H322M,0.697
7,NCI-H358,0.223
8,NCI-H441,0.226
9,NCI-H460,0.479
10,NCI-H596,1.03
11,NCI-H647,0.337
12,NCI-H650,0.348
13,NCI-H727,0.938
14,NCI-H838,0.462
15,NCI-H1355,0.362
16,NCI-H1395,0.849
17,NCI-H1437,0.586
18,NCI-H1651,0.656
19,NCI-H1666,0.761
20,NCI-H1734,0.56
21,NCI-H1755,0.676
22,NCI-H1792,0.407
23,NCI-H1793,0.624
24,NCI-H1915,0.277
25,NCI-H1944,0.439
26,NCI-H1975,0.399
27,NCI-H1993,0.607
28,NCI-H2085,0.587

# Same assay, conditions: first compound 6.325 µM
row,Cell Line,relative viability
1,LK-2,0.225
2,LOU-NH91,0.815
3,LU99A,0.848
4,LXF-289,0.373
5,NCI-H23,0.292
6,NCI-H322M,0.717
7,NCI-H358,0.228
8,NCI-H441,0.278
9,NCI-H460,0.439
10,NCI-H596,1.02
11,NCI-H647,0.283
12,NCI-H650,0.303
13,NCI-H727,0.848
14,NCI-H838,0.439
15,NCI-H1355,0.336
16,NCI-H1395,0.657
17,NCI-H1437,0.61
18,NCI-H1651,0.594
19,NCI-H1666,0.686
20,NCI-H1734,0.522
21,NCI-H1755,0.63
22,NCI-H1792,0.549
23,NCI-H1793,0.36
24,NCI-H1915,0.268
25,NCI-H1944,0.368
26,NCI-H1975,0.372
27,NCI-H1993,0.654
28,NCI-H2085,0.589

# Same assay, conditions: first compound 20 µM
row,Cell Line,relative viability
1,LK-2,0.211
2,LOU-NH91,0.634
3,LU99A,0.776
4,LXF-289,0.391
5,NCI-H23,0.327
6,NCI-H322M,0.576
7,NCI-H358,0.207
8,NCI-H441,0.254
9,NCI-H460,0.463
10,NCI-H596,0.905
11,NCI-H647,0.293
12,NCI-H650,0.339
13,NCI-H727,0.838
14,NCI-H838,0.475
15,NCI-H1355,0.34
16,NCI-H1395,0.717
17,NCI-H1437,0.572
18,NCI-H1651,0.62
19,NCI-H1666,0.682
20,NCI-H1734,0.452
21,NCI-H1755,0.573
22,NCI-H1792,0.54
23,NCI-H1793,0.424
24,NCI-H1915,0.223
25,NCI-H1944,0.399
26,NCI-H1975,0.355
27,NCI-H1993,0.513
28,NCI-H2085,0.471
